pIC50: −log10 of the molar value. Where two headings read alike, the source gives them in different places.

Assay [1] concerns the target T1, 5-Lipoxygenase (Homo sapiens, UniProt P09917).
T1 sequence (P09917 1-674): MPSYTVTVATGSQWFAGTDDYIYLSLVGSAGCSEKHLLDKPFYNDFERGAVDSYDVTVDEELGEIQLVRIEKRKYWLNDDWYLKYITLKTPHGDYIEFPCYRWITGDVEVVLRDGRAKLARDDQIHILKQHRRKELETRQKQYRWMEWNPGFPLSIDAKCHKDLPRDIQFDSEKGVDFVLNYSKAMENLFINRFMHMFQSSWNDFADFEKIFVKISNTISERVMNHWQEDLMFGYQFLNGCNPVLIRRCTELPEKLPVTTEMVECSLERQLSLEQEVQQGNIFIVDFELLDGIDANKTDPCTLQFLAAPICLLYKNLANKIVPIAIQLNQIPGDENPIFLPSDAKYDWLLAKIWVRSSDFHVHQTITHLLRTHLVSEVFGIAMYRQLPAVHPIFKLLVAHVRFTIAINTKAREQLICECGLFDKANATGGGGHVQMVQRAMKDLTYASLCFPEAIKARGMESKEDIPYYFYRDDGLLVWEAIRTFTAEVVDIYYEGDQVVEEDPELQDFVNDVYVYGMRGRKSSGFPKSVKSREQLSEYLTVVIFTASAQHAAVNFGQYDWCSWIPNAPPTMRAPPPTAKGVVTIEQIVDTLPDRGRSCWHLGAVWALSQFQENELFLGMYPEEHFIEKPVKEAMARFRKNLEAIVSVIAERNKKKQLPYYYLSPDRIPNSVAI
Description: Inhibition of 5-Lipoxygenase activity. It is filed as biochemical. As to conditions: for IC50: IC50 (μM). The source says:
5-Lipoxygenase has been known to be a key enzyme in the bio-synthesis of leukotrienes, important mediators in inflammatory and allergic processes. […] The experiment was repeated using various concentrations of the compounds.

The subject of assay [2] is methicillin-resistant Staphylococcus aureus (ATCC33591). Description: Growth inhibition of methicillin-resistant Staphylococcus aureus (ATCC33591). Type of assay: cell-based. The settings on record: Table 5; repeated with various concentrations. The source says:
In this example, the inhibition by the aforementioned compounds or extracts on the growth of methicillin-resistant Staphylococcus aureus (ATCC33591) was studied by a method modified from those described in Modugno et al., Antimicrobial Agents and Chemotherapy, 1994, 38: 2362-2368, and Misiek et al., Antimicrobial Agents Chemotherapy, 1973, 3: 40-48.
The above experiments on Staphylococcus aureus and Propionibacterium acnes were repeated using various concentrations of the compounds.

[3] abbreviates: Table 2A, concentration 10 μM, read-out: % Inhibition.
[4] abbreviates: Table 2A, read-out: 5-Lipoxygenase, IC50.
The mark [5] stands for this setting: Table 2B, read-out: 5-Lipoxygenase, IC50.

Regarding `CC(=O)O[C@H](CC=C(C)C)C1=CC(=O)c2c(O)ccc(O)c2C1=O` [ASK, (R)-1-(5,8-dihydroxy-1,4-dioxo-1,4-dihydronaphthalen-2-yl)-4-methylpent-3-enyl acetate], in assay [1], the inhibition at 10 µM was 99%. Also, the IC50 in assay [1] (5-Lipoxygenase, Table 2A) was 1.46 µM. The “Anti-microbial Activity, effective concentration range, MRSA (μM)” value (shortened to “Anti-microbial Activity … (μM)”) in assay [2] is reported as 0.9~3.0 μM.

Take `CC(C)=CC[C@@H](OC(=O)C=C(C)C)C1=CC(=O)c2c(O)ccc(O)c2C1=O` [BSK]: the inhibition at 10 µM in assay [1] (setting [3]) was determined as 99%. Further, the pIC50 in assay [1] (setting [4]) is 5.92. Also, the “Anti-microbial Activity, effective concentration range, MRSA” value in assay [2] was 2.8 µM.

On to `Cc1cc(C2CCCCC2)n(O)c(=O)c1` [Ciclpirox Olamine, reference compound], for which the inhibition at 30 µM in assay [1] (Table 2B, concentration 30 μM) came out at 66%. In addition, the pIC50 in assay [1] (setting [5]) was 4.77. Further, the “Anti-microbial Activity, effective concentration range, MRSA” value in assay [2] was 37.3 µM.

For `CC(C)=CCCC1=CC(=O)c2c(O)ccc(O)c2C1=O` [DSK, 5,8-dihydroxy-2-(4-methylpent-3-enyl)naphthalene-1,4-dione], in assay [1], the inhibition at 10 µM turned out to be 53% and the inhibition at 10 µg/mL worked out at 64%. The molecule also came in with an IC50 in assay [1] (5-Lipoxygenase, Table 2A) of 7.01 µM. This molecule also showed a pIC50 in assay [1] (5-Lipoxygenase, IC50, Table 2B) of 4.70. The “Anti-microbial Activity … (μM)” value in assay [2] is 7.8~26.0 μM.

Turning to `CC(C)=CC[C@@H](OC(=O)C(C)C)C1=CC(=O)c2c(O)ccc(O)c2C1=O` [ISK, (R)-1-(5,8-dihydroxy-1,4-dioxo-1,4-dihydronaphthalen-2-yl)-4-methylpent-3-enyl isobutyrate], the inhibition at 10 µM in assay [1] (setting [3]) was determined as 98%. For the same molecule, in assay [1] (setting [4]), the pIC50 was 5.81. Moreover, the “Anti-microbial Activity, effective concentration range, MRSA” value in assay [2] is 7.7 µM.

`CCC(C)C(=O)O[C@H](CC=C(C)C)C1=CC(=O)c2c(O)ccc(O)c2C1=O` (some centres unmarked) [MBSK, 1-(5,8-dihydroxy-1,4-dioxo-1,4-dihydronaphthalen-2-yl)-4-methylpent-3-enyl 2-methylbutanoate]: the inhibition at 10 µM in assay [1] (setting [3]) was 98%. The pIC50 in assay [1] (setting [4]) is 5.86. For the same molecule, the “Anti-microbial Activity, effective concentration range, MRSA” value in assay [2] is 2.7 µM.

On to `CC(C)=CC[C@@H](O)C1=CC(=O)c2c(O)ccc(O)c2C1=O` [SK, (R)-5,8-dihydroxy-2-(1-hydroxy-4-methylpent-3-enyl)naphthalene-1,4-dione], for which, in assay [1], the pIC50 was 6.41, the inhibition at 1 µM amounted to 70%, the inhibition at 1 µg/mL is 51% and the inhibition at 10 µM was 101%. Moreover, the pIC50 in assay [1] (5-Lipoxygenase, IC50, Table 2B) was 5.53. Also, the “Anti-microbial Activity … (μM)” value in assay [2] is 10.4~34.7 μM.

With Gentamicin [reference compound], the “Anti-microbial Activity, effective concentration range, MRSA” value in assay [2] was found to be 2.1 µM.

On to “epigallocatechin-3 gallate [EGCG, reference compound]”, for which the “% Inhibition” value in assay [1] (Table 2B, concentration 100 μM) was 58%. Also, the pIC50 in assay [1] (setting [5]) is 4.06.

As a reminder, the inhibition is the relative decrease from the control value, in per cent. The term IC50 denotes the concentration that inhibits the measured activity by half. Low readings indicate inhibition by little substance, high ones a need for much substance. One may read the pIC50 as −log10 of the IC50, conventionally taken in molar units. As a reminder, the % Inhibition is the change of the read-out against control, counted positive when it falls.

Source of the values: patent US7622506B2, “Naphthalenedione compounds for treating inflammation related disorders and microbial infection” (SunTen Phytotech Co., Ltd., priority 2006, dated 2009).
